Reference: article doi:10.1101/2025.06.02.657523v1 (biorxiv, 2025)

Biological target: RSK4 (Homo sapiens, UniProt Q9UK32)
Assay: Kinase-Glo Plus luminescence kinase assay
Type: biochemical
Conditions: […] ATP, […] MgCl2, pH […] °C, […] min, […] DMSO

Chain of RSK4 (Q9UK32 whole entry): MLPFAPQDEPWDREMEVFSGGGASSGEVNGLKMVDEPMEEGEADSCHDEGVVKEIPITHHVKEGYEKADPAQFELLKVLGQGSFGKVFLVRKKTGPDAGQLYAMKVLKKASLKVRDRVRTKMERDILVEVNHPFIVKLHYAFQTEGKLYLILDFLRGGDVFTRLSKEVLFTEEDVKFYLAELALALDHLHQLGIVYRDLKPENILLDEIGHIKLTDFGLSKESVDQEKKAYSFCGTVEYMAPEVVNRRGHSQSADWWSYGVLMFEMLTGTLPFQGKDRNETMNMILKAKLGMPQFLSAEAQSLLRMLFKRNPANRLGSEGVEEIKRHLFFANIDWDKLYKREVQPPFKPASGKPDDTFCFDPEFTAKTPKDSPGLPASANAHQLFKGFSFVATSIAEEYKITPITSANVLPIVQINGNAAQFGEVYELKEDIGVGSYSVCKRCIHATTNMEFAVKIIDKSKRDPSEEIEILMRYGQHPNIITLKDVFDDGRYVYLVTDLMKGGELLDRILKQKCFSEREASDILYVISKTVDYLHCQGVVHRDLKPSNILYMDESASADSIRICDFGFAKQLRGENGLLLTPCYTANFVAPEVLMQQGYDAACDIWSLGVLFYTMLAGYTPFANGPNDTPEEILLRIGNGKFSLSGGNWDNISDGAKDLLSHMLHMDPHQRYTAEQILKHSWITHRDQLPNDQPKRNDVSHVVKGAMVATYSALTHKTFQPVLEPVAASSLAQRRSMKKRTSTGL

| SMILES | IC50 [nM] |
| --- | --- |
| Cc1cc(=O)n(C2CCC(F)(F)C2)c2nc(Nc3ccc4c(c3)CC(=O)N4)ncc12 (centres unmarked) [R634] | 86.3 ± 40.7 |
| Cc1cc(=O)n(C2CCCCC2)c2nc(Nc3ccc4[nH]ccc4c3)ncc12 [R635, 2-((1H-indol-5-yl)amino)-8-cyclohexyl-5-methylpyrido[2,3-d]pyrimidin-7(8H)-one] | 45.9 ± 3.11 |
